# Molecular target: Aldehyde dehydrogenase, mitochondrial (Mesocricetus auratus)
# Assay: Inhibition of hamster liver aldehyde dehydrogenase ALDH-2
row,IC50 [nM],Compound
1,100,O=C(O)CCCCOc1ccc2c(=O)c(-c3ccc(O)cc3)coc2c1 [5-[3-(4-Hydroxy-phenyl)-4-oxo-4H-chromen-7-yloxy]-pentanoic acid]
2,180,C=CCOc1ccc2c(=O)c(-c3ccc(O)cc3)coc2c1 [7-Allyloxy-3-(4-hydroxy-phenyl)-chromen-4-one]
3,2500,CC(Oc1ccc2c(=O)c(-c3ccc(O)cc3)coc2c1)C(=O)O (configuration not stated) [2-[3-(4-Hydroxy-phenyl)-4-oxo-4H-chromen-7-yloxy]-propionic acid]
4,240,CCOC(=O)CCCCOc1ccc2c(=O)c(-c3ccc(O)cc3)coc2c1 [5-[3-(4-Hydroxy-phenyl)-4-oxo-4H-chromen-7-yloxy]-pentanoic acid ethyl ester]
5,150,"CC1=C(c2ccccc2)C(=O)OC2CC(Cl)CCC12 (configuration not stated) [7-Chloro-4-methyl-3-phenyl-4a,5,6,7,8,8a-hexahydro-chromen-2-one]"
6,4500,CCCCC(Oc1ccc2c(=O)c(-c3ccc(O)cc3)coc2c1)C(=O)OCC (configuration not stated) [2-[3-(4-Hydroxy-phenyl)-4-oxo-4H-chromen-7-yloxy]-hexanoic acid ethyl ester]
7,1200,O=C(O)COc1ccc2c(=O)c(-c3ccc(O)cc3)coc2c1 [2-(3-(4-hydroxyphenyl)-4-oxo-4H-chromen-7-yloxy)acetic acid]
8,80,CC(C)Oc1ccc2c(=O)c(-c3ccc(O)cc3)coc2c1 [3-(4-Hydroxy-phenyl)-7-isopropoxy-chromen-4-one]
9,130,CCOC(=O)COc1ccc2c(=O)c(-c3ccc(O)cc3)coc2c1 [[3-(4-Hydroxy-phenyl)-4-oxo-4H-chromen-7-yloxy]-acetic acid ethyl ester]
10,280,CCOC(=O)CCCCCOc1ccc2c(=O)c(-c3ccc(O)cc3)coc2c1 [6-[3-(4-Hydroxy-phenyl)-4-oxo-4H-chromen-7-yloxy]-hexanoic acid ethyl ester]
11,2000,CCCCCCC(Oc1ccc2c(=O)c(-c3ccc(O)cc3)coc2c1)C(=O)O (configuration not stated) [2-[3-(4-Hydroxy-phenyl)-4-oxo-4H-chromen-7-yloxy]-octanoic acid]
12,80,CCOc1ccc2c(=O)c(-c3ccc(O)cc3)coc2c1 [7-Ethoxy-3-(4-hydroxy-phenyl)-chromen-4-one]

# The remaining lines, values behind:
row,Compound,IC50 [nM]
1,C=CCCCCOc1ccc2c(=O)c(-c3ccc(O)cc3)coc2c1 [7-Hex-5-enyloxy-3-(4-hydroxy-phenyl)-chromen-4-one],150
2,O=c1c(-c2ccc(O)cc2)coc2cc(OCCCCCCCCCCCCO)ccc12 [7-(12-Hydroxy-dodecyloxy)-3-(4-hydroxy-phenyl)-chromen-4-one],1700
3,O=C(O)CCCCCCCCCOc1ccc2c(=O)c(-c3ccc(O)cc3)coc2c1 [10-(3-(4-hydroxyphenyl)-4-oxo-4H-chromen-7-yloxy)decanoic acid],50
4,CCCCCCC(Oc1ccc2c(=O)c(-c3ccc(O)cc3)coc2c1)C(=O)OCC (configuration not stated) [2-[3-(4-Hydroxy-phenyl)-4-oxo-4H-chromen-7-yloxy]-octanoic acid ethyl ester],7200
5,O=C(O)CCCCCCCCCCCCCCCOc1ccc2c(=O)c(-c3ccc(O)cc3)coc2c1 [16-[3-(4-Hydroxy-phenyl)-4-oxo-4H-chromen-7-yloxy]-hexadecanoic acid],> 9000
6,O=C(O)CCCCCCCCCCCOc1ccc2c(=O)c(-c3ccc(O)cc3)coc2c1 [12-(3-(4-hydroxyphenyl)-4-oxo-4H-chromen-7-yloxy)dodecanoic acid],130
7,O=C(O)CCCCCCOc1ccc2c(=O)c(-c3ccc(O)cc3)coc2c1 [7-[3-(4-Hydroxy-phenyl)-4-oxo-4H-chromen-7-yloxy]-heptanoic acid],50
8,CCCCCCCCCCCCOc1ccc2c(=O)c(-c3ccc(O)cc3)coc2c1 [7-(dodecyloxy)-3-(4-hydroxyphenyl)-4H-chromen-4-one],> 9000
9,NCCCCCCOc1ccc2c(=O)c(-c3ccc(O)cc3)coc2c1 [7-(6-Amino-hexyloxy)-3-(4-hydroxy-phenyl)-chromen-4-one],100
10,O=c1c(-c2ccc(O)cc2)coc2cc(OCCOCCOCCO)ccc12 [7-(2-(2-(2-hydroxyethoxy)ethoxy)ethoxy)-3-(4-hydroxyphenyl)-4H-chromen-4-one],40
11,NCCCCOc1ccc2c(=O)c(-c3ccc(O)cc3)coc2c1 [7-(4-Amino-butoxy)-3-(4-hydroxy-phenyl)-chromen-4-one],250
12,O=c1c(-c2ccc(O)cc2)coc2cc(OCCCCCCCCCO)ccc12 [7-(9-Hydroxy-nonyloxy)-3-(4-hydroxy-phenyl)-chromen-4-one],700
13,CCCCCCOc1ccc2c(=O)c(-c3ccc(O)cc3)coc2c1 [7-Hexyloxy-3-(4-hydroxyphenyl)chromen-4-one],1500
14,O=c1c(-c2ccc(O)cc2)coc2cc(OCCCCCCO)ccc12 [7-(6-Hydroxy-hexyloxy)-3-(4-hydroxy-phenyl)-chromen-4-one],120
15,O=C(O)CCCCCCCOc1ccc2c(=O)c(-c3ccc(O)cc3)coc2c1 [8-(3-(4-hydroxyphenyl)-4-oxo-4H-chromen-7-yloxy)octanoic acid],40

# — BindingDB's records for doi:10.1021/jm0101390 (Harvard Medical School, 2001)
